Laboratory results: the supplement of paper PMC10307832

Experiments:
Assay in all cases: relative viability (nuclei count vs DMSO), 5 days (fraction); higher = more cells survive
Vismodegib + Palbociclib = compound: CS(=O)(=O)c1ccc(C(=O)Nc2ccc(Cl)c(-c3ccccn3)c2)c(Cl)c1 [Vismodegib] + CC(=O)c1c(C)c2cnc(Nc3ccc(N4CCNCC4)cn3)nc2n(C2CCCC2)c1=O [Palbociclib] (partner 0.5 µM)
Summary of the method: (§1)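 Lung cancer cell lines were seeded in 1536-well plates and dosed by pin tool the next day, with either a single drug or a fixed anchor-drug dose combined with five library-drug doses (not always all listed) spaced in √10 steps. Five days later, one step fixed the cells and stained their nuclei (final 0.05% Triton X-100, 1% formaldehyde, 1 ug/ml Hoechst), and nuclei were counted on 4× images. Relative viability is the nuclei count in treated wells divided by the count in vehicle wells, and each value is the median of duplicate plates.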

Vismodegib + Vorinostat = compound: CS(=O)(=O)c1ccc(C(=O)Nc2ccc(Cl)c(-c3ccccn3)c2)c(Cl)c1 [Vismodegib] + O=C(CCCCCCC(=O)Nc1ccccc1)NO [Vorinostat] (partner 1 µM)
Summary of the method: as §1

Vismodegib + Linsitinib = compound: CS(=O)(=O)c1ccc(C(=O)Nc2ccc(Cl)c(-c3ccccn3)c2)c(Cl)c1 [Vismodegib] + C[C@]1(O)C[C@@H](c2nc(-c3ccc4ccc(-c5ccccc5)nc4c3)c3c(N)nccn32)C1 [Linsitinib] (partner 1 µM)
Summary of the method: as §1

Ruxolitinib + Linsitinib = compound: N#CC[C@H](C1CCCC1)n1cc(-c2ncnc3[nH]ccc23)cn1 [Ruxolitinib] + C[C@]1(O)C[C@@H](c2nc(-c3ccc4ccc(-c5ccccc5)nc4c3)c3c(N)nccn32)C1 [Linsitinib] (partner 1 µM)
Summary of the method: as §1

Row | Cell Line | relative viability (Vismodegib + Palbociclib; first compound 0.08 µM) | relative viability (Vismodegib + Palbociclib; first compound 0.253 µM) | relative viability (Vismodegib + Palbociclib; first compound 0.8 µM) | relative viability (Vismodegib + Palbociclib; first compound 2.53 µM) | relative viability (Vismodegib + Palbociclib; first compound 8 µM) | relative viability (Vismodegib + Vorinostat; first compound 0.08 µM) | relative viability (Vismodegib + Vorinostat; first compound 0.253 µM) | relative viability (Vismodegib + Vorinostat; first compound 0.8 µM) | relative viability (Vismodegib + Vorinostat; first compound 2.53 µM) | relative viability (Vismodegib + Vorinostat; first compound 8 µM) | relative viability (Vismodegib + Linsitinib; first compound 0.08 µM) | relative viability (Vismodegib + Linsitinib; first compound 0.253 µM) | relative viability (Vismodegib + Linsitinib; first compound 0.8 µM) | relative viability (Vismodegib + Linsitinib; first compound 2.53 µM) | relative viability (Vismodegib + Linsitinib; first compound 8 µM) | relative viability (Ruxolitinib + Linsitinib; first compound 0.08 µM) | relative viability (Ruxolitinib + Linsitinib; first compound 0.253 µM) | relative viability (Ruxolitinib + Linsitinib; first compound 0.8 µM) | relative viability (Ruxolitinib + Linsitinib; first compound 2.53 µM) | relative viability (Ruxolitinib + Linsitinib; first compound 8 µM)
1 | NCI-H2170 | 0.432 | 0.387 | 0.469 | 0.379 | 0.418 | 0.83 | 0.712 | 0.824 | 0.815 | 0.838 | – | – | – | – | – | – | – | – | – | –
2 | NCI-H2228 | 0.927 | 0.74 | 0.761 | 0.627 | 0.955 | 1.03 | 0.719 | 0.589 | 0.751 | 0.574 | 0.972 | 0.855 | 0.835 | 0.467 | 0.763 | 0.796 | 0.686 | 0.85 | 0.626 | 0.559
3 | ABC-1 | 0.667 | 1.01 | 0.542 | 0.618 | 0.73 | 1.55 | 0.987 | 0.873 | 1.23 | 1.24 | 0.666 | 0.682 | 0.79 | 0.821 | 0.794 | 0.983 | 0.705 | 0.865 | 0.97 | 0.871
4 | LOU-NH91 | 0.536 | 0.582 | 0.496 | 0.523 | 0.553 | 0.884 | 0.899 | 0.793 | 0.845 | 0.885 | 0.926 | 0.972 | 0.916 | 0.951 | 0.961 | 0.663 | 0.895 | 1.14 | 0.895 | 0.872
5 | NCI-H727 | 0.687 | 0.649 | 0.631 | 0.723 | 0.639 | 1.21 | 1.32 | 1.1 | 1.18 | 1.2 | 0.336 | 0.319 | 0.286 | 0.376 | 0.239 | 0.283 | 0.272 | 0.237 | 0.228 | 0.427
6 | NCI-H2023 | 0.321 | 0.318 | 0.374 | 0.345 | 0.4 | 0.625 | 0.53 | 0.711 | 0.654 | 0.612 | 0.596 | 0.662 | 0.675 | 0.579 | 0.618 | 0.689 | 0.589 | 0.722 | 0.683 | 0.672
7 | NCI-H1563 | – | – | – | – | – | – | – | – | – | – | 1.17 | 1.34 | 1.26 | 1.01 | 1.2 | 1.18 | 1.21 | 1.25 | 1.16 | 1.09
8 | SW 900 | 0.641 | 0.514 | 0.634 | – | 0.603 | 0.457 | 0.415 | 0.435 | – | 0.602 | – | – | – | – | – | – | – | – | – | –
9 | NCI-H1703 | – | – | – | – | – | – | – | – | – | – | 0.928 | 0.77 | 0.928 | 0.618 | 1.19 | 1.07 | 0.624 | 1.25 | 0.451 | 0.547
10 | ChaGo-K-1 | 0.913 | 0.968 | 0.893 | 0.927 | 0.915 | 0.761 | 0.739 | 0.799 | 0.754 | 0.708 | – | – | – | – | – | – | – | – | – | –
11 | EBC-1 | – | – | – | – | – | – | – | – | – | – | 0.871 | 0.901 | 0.981 | 0.778 | 0.883 | 0.831 | 1.1 | 1.06 | 0.783 | 0.823
12 | NCI-H2342 | 0.517 | 0.699 | 0.472 | 0.574 | 0.483 | 0.747 | 0.597 | 0.805 | 0.735 | 0.652 | – | – | – | – | – | – | – | – | – | –
13 | NCI-H1299 | – | – | – | – | – | – | – | – | – | – | 0.979 | 0.952 | 0.994 | 0.929 | 0.991 | 0.981 | 0.974 | 0.975 | 0.917 | 0.871
14 | Calu-6 | – | – | – | – | – | – | – | – | – | – | 1 | 0.9 | 0.952 | 0.904 | 1.02 | 0.94 | 0.923 | 1.01 | – | 0.882
15 | NCI-H1792 | 0.668 | 0.639 | 0.653 | 0.644 | 0.673 | – | – | – | – | – | 0.532 | 0.558 | 0.409 | 0.572 | 0.503 | 0.495 | 0.504 | 0.488 | 0.417 | 0.499
16 | IA-LM | – | – | – | – | – | 0.735 | 0.951 | 0.843 | 0.947 | 1.03 | 0.629 | 0.493 | 0.68 | 0.579 | 0.63 | 0.652 | 0.662 | 0.719 | 0.518 | 0.469
17 | NCI-H1650 | 0.365 | 0.363 | 0.305 | 0.304 | 0.366 | 0.568 | 0.523 | 0.48 | 0.543 | 0.569 | – | – | – | – | – | – | – | – | – | –
18 | NCI-H1648 | 0.282 | 0.246 | 0.214 | 0.274 | 0.241 | 0.607 | 0.757 | 0.389 | 0.465 | 0.512 | – | – | – | – | – | – | – | – | – | –
19 | NCI-H522 | 1.16 | 0.985 | 0.894 | 0.923 | 1.03 | 1.02 | 0.886 | 0.808 | 0.941 | 0.806 | – | – | – | – | – | – | – | – | – | –
20 | A549 | – | – | – | – | – | – | – | – | – | – | 0.537 | 0.566 | 0.448 | 0.526 | 0.615 | 0.594 | 0.576 | 0.896 | 0.558 | 0.675
